Experimental data from US20150307508A1, “Application of an alkaloid derived from a Chinese herbal for treatment of cancer by inhibiting cholesterol synthesis and fatty acid oxidation” (Macau University of Science and Technology, priority 2014, published 2015).
Where “and” joins values, the source holds several entries; their conditions need not be identical. Identical values can stand only once.

Tests used:
[1] = test system: H1975 (EGFR^L858R+T790M); assay: MTT cytotoxicity assay, H1975; type: cell-based; conditions: Homo sapiens, NCI-H1975, H1975, 72 hrs, read-out: IC50 value after 72 hrs of treatment
Excerpt: (§1) This example described the BBR-induced cytotoxicity effect in six NSCLC cell lines utilizing MTT cytotoxicity assay. A549 is wild type EGFR and BEAS-2B is normal lung epithelial cells.

[2] = test system: H1650 (EGFR^Exon19 deletion); assay: MTT cytotoxicity assay, H1650; type: cell-based; conditions: Homo sapiens, NCI-H1650, H1650, 72 hrs, read-out: IC50 value after 72 hrs of treatment
Excerpt: as §1

[3] = test system: H1819; assay: MTT cytotoxicity assay, H1819; type: cell-based; conditions: Homo sapiens, NCI-H1819, H1819, 72 hrs, read-out: IC50 value after 72 hrs of treatment
Excerpt: as §1

[4] = test system: HCC827; assay: MTT cytotoxicity assay, HCC827; type: cell-based; conditions: Homo sapiens, HCC827, 72 hrs, read-out: IC50 value after 72 hrs of treatment
Excerpt: as §1

[5] = test system: A549 (EGFR^Wild type); assay: MTT cytotoxicity assay, A549; type: cell-based; conditions: Homo sapiens, A549, 72 hrs, read-out: IC50 value after 72 hrs of treatment
Excerpt: as §1

[6] = test system: BEAS-2B (Normal lung epithelial cell); assay: MTT cytotoxicity assay, BEAS-2B; type: cell-based; conditions: Homo sapiens, 72 hrs, read-out: IC50 value after 72 hrs of treatment
Excerpt: as §1

[7] = test system: H1650 cells; assay: Cell cycle analysis of H1650; type: cell-based, human; conditions: 72 hrs
Excerpt: (§2) The anticancer effect of berberine against two most BBR sensitive cell lines are further studied in Example 8, namely H1975 (EGFR^L858R+T790M) and H1650 (EGFR^Exon19 deletion).

[8] = test system: H1975 cells; assay: Cell cycle analysis of H1975; type: cell-based, human; conditions: 72 hrs
Excerpt: as §2

[9] = test system: CCNB1; assay: Western blot analysis of CCNB1 protein level in H1975 cells; type: cell-based, human; conditions: 72 hrs
[10] = test system: CCND1; assay: Western blot analysis of CCND1 protein level in H1975 cells; type: cell-based, human; conditions: 72 hrs
[11] = test system: CPT1C; assay: Real-time PCR analysis of CPT1C RNA expression; type: cell-based, human; conditions: 24 hrs
Procedure: (§3) The RNA expression levels of CPT1C and SREBP1 in both H1975 and H1650 cell lines after being treated with 10 μM BBR for 24 hrs were analyzed by Real-time PCR analysis and Western blot analysis, as shown in FIGS. 2A-2D.

[12] = test system: SREBP1; assay: Real-time PCR analysis of SREBP1 RNA expression; type: cell-based, human; conditions: 24 hrs
Procedure: as §3

[13] = test system: H1975 cells; assay: Thin-layer chromatography of total cellular lipid, H1975; type: cell-based, human; conditions: H1975, 5 μM, 72 hours
Procedure: (§4) Cells were scraped from culture dish and resuspended in 2 ml PBS containing 1× protease inhibitor and 1 mM PMSF. Total cellular lipid was extracted by adding 4 ml chloroform/methanol (2:1). The mixture was vortexed for 1 min and centrifuged at 1500 g×5 min. The organic phase was collected and another 2.5 ml choloroform was added to the residual aqueous phase; the mixture was vortexted and centrifuged at 1500 g×5 min again. The organic phase was collected together with the previous extraction. Thin layer chromatography (TLC) was performed by spotting of the cellular total lipid extract to a 5×10 cm silica gel aluminum sheet and developed with hexane/diethyl ether/acetic acid (80:20:2). Lipids were visualized with iodine vapor and imaged using a desktop scanner
(§5) The overall lipid levels in H1975 and H1650 treated by Berberine were studied in this example. H1975 and H1650 cells were treated with 5 μM BBR for 72 hours and then total cellular lipid was extracted.

[14] = test system: H1650 cells; assay: Thin-layer chromatography of total cellular lipid, H1650; type: cell-based, human; conditions: H1650, 5 μM, 72 hours
Procedure: as §4, §5

[15] = test system: H1975; conditions: cited from earlier work
[16] = test system: H1650; conditions: cited from earlier work
[17] = test system: H1819; conditions: cited from earlier work
[18] = test system: BEAS-2B (Normal lung epithelial cell); conditions: cited from earlier work

## COc1ccc2cc3[n+](cc2c1OC)CCc1cc2c(cc1-3)OCO2 [BBR, berberine]
[1]
  IC50: 2.92 ± 0.49 µM
[2]
  IC50: 6 ± 2.78 µM
[3]
  IC50: 6.51 ± 2.09 µM
[4]
  IC50: 8.9 ± 4.4 µM
[5]
  IC50: 11.2 ± 3.98 µM
[6]
  IC50: 24.7 ± 12.4 µM
[7]; H1650, 5 μM
  decrease of percentage of G0/G1 phase vs control: 21.1%
[7]; H1650, 10 μM
  decrease of percentage of G0/G1 phase vs control: 18.3%
[8]; H1975, 5 μM
  decrease of percentage of G0/G1 phase vs control: 11.5%
  increase of G2 phase vs control: 11%
[8]; H1975, 10 μM
  decrease of percentage of G0/G1 phase vs control: 14%
  increase of G2 phase vs control: 15.73% and 15.7%
[9]
  protein level of CCNB1 (Western blot): down-regulated
[10]
  protein level of CCND1 (Western blot): down-regulated
[11]; H1650, 10 μM
  increase of RNA expression level of CPT1C vs vehicle control: 5.92 times
[11]; H1975, 10 μM
  increase of RNA expression level of CPT1C vs vehicle control: 2.005 times
[12]; H1650, 10 μM
  decrease of RNA expression level of SREBP1 vs vehicle control: 2.64 times
[12]; H1975, 10 μM
  decrease of RNA expression level of SREBP1 vs vehicle control: 9.23 times
[13]
  overall lipid levels (TLC): lower the overall lipid levels
[14]
  overall lipid levels (TLC): lower the overall lipid levels

## COc1cc2ncnc(Nc3ccc(F)c(Cl)c3)c2cc1OCCCN1CCOCC1 [Gefitinib]
[15]
  Gefitinib Sensitivity: Resistant
[16]
  Gefitinib Sensitivity: Resistant
[17]
  Gefitinib Sensitivity: Moderately sensitive
[18]
  Gefitinib Sensitivity: Resistant
